In ChEMBL document CHEMBL3886280, “Nicotinic receptor compounds” (2015) one finds Ki data, which are given here for two compounds.

This experiment concerns the target Neuronal acetylcholine receptor subunit alpha-7 (Rattus norvegicus, UniProt Q05941). The experiment can be described thus: Inhibition Assay: Compounds ([…]) were also evaluated for inhibition of binding to a7 nAChR using [125I]iodoMLA as previously reported in Carroll et al. The binding assays were conducted and the Ki values calculated as described in Carroll, F. I. et al., "Synthesis, nicotinic acetylcholine receptor binding, and antinociceptive properties of 2-exo-2-(2',3'-disubstituted 5'-pyridinyl)-7- ….

Chain of Neuronal acetylcholine receptor subunit alpha-7 (Q05941 whole entry): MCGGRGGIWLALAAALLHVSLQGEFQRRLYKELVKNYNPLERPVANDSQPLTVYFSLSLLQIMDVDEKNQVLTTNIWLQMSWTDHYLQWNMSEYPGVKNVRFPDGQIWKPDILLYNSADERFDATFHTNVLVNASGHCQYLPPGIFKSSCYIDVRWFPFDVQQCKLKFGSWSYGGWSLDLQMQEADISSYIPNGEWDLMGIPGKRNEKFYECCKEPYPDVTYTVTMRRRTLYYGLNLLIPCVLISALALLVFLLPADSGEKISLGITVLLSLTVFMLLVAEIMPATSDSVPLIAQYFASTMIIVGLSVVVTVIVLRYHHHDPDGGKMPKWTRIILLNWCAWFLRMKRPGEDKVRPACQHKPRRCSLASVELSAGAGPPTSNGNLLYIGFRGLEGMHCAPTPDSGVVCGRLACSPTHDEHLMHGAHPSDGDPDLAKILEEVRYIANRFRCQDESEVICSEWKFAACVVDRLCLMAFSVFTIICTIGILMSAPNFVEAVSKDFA

For `Fc1ncc(C2CC3CCC2N3)cc1-c1cccc(Cl)c1` (configuration not stated), the Ki is more than 2 µM.

Consider `Fc1ncc(C2CC3CCC2N3)cc1-c1ccccc1` (racemic), for which the inhibition constant (Ki) was more than 2 µM.

For orientation: Ki means the equilibrium dissociation constant of an inhibitor or competing ligand from its target.
